IC50 data for one compound are collected here from article PMC6910110, “Icaritin, an inhibitor of beta-site amyloid cleaving enzyme-1, inhibits secretion of amyloid precursor protein in APP-PS1-HEK293 cells by impeding the amyloidogenic pathway” (PeerJ, 2019).

One may read the IC50 as the concentration that gives 50% inhibition.

For this test, the target named is T1, beta-site amyloid cleaving enzyme (BACE)1 (Homo sapiens, UniProt P56817).
T1 construct: gene BACE1
The test can be described thus: BACE1 FRET assay kit (Panvera), Swedish-mutant peptide substrate. The format is biochemical.

Structures are written as SMILES.

T1 sequence (P56817 46-457): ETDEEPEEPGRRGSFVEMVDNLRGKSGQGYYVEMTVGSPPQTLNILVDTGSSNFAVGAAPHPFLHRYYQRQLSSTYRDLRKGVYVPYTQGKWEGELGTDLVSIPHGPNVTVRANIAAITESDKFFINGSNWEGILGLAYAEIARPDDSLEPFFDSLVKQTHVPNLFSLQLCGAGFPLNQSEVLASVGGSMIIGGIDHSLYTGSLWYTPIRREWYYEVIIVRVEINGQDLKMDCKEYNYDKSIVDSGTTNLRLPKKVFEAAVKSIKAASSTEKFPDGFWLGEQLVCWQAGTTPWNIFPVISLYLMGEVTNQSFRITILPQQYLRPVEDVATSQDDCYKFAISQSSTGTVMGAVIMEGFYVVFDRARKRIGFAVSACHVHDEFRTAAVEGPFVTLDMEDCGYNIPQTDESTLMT

`COc1ccc(-c2oc3c(CC=C(C)C)c(O)cc(O)c3c(=O)c2O)cc1` [ICT, Icaritin] gave an IC50 of 5.7 ± 1.09 µM.
